Each structure is given as a SMILES string. Marks after values point to notes of the source that are not given here.

For this assay, the target named is T1, BT_2972 (Bacteroides thetaiotaomicron, UniProt Q8A3I2).
T1 construct: 257 amino acids with noncleavable N-terminal (His)6 tag; pGS21a, E. coli BL21 (DE3); monomer in solution; first 12 residues disordered
Description: isothermal titration calorimetry. The format is binding. To be noted: 20 mM Tris-HCl pH 8.0, 200 mM NaCl, 24 °C; single-site model. For orientation: ITC needs no label: the signal is the heat of the interaction.

T1 sequence (Q8A3I2 entry or part of it, change not shown): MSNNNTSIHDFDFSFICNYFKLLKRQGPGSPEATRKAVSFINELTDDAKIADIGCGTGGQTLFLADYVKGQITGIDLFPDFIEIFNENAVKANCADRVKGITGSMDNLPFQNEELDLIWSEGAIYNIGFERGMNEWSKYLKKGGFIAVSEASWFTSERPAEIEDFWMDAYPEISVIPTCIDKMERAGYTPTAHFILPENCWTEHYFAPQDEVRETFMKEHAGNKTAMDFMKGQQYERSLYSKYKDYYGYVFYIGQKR

Turning to `Nc1ncnc2c1ncn2[C@@H]1O[C@H](CSCC[C@H](N)C(=O)O)[C@@H](O)[C@H]1O` [AdoHcy], the Ka is reported as 3.498×10^5 (±0.66×10^5).
The figure for `C[S+](CC[C@H](N)C(=O)O)C[C@H]1O[C@@H](n2cnc3c(N)ncnc32)[C@H](O)[C@@H]1O` (some centres unmarked) [AdoMet] is 0.395×10^5 (±0.0435×10^5).

These data come from publication PMC3225368, “A Conformational Switch in the Active Site of BT_2972, a Methyltransferase from an Antibiotic Resistant Pathogen B. thetaiotaomicron” (PLoS ONE, 2011).
